Experimental data reported in patent US12570671B2 (BRISTOL-MYERS SQUIBB COMPANY, priority 2020, dated 2026).

Tests used:
[1] = target: Helios (Homo sapiens, UniProt Q96SW2+Q9UKS7); assay: Helios Cellular Degradation Assay (Helios readout); assay type: cell-based; design: endogenous in cells; host or cells: Jurkat; conditions: Jurkat cells, 72 h incubation, Helios-PE antibody staining, flow cytometry; read-out: Helios Jurkat IC50
In short: (§1)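 Jurkat cells (80,000/well, RPMI+10% FBS) were treated with compound for 72 h at 37° C. After fixation and permeabilization they were stained with fluorescent antibodies to Helios, Ikaros and Aiolos. Intracellular protein levels were quantified by flow cytometry.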

[2] = target: Ikaros (Homo sapiens, UniProt Q13422+Q96SW2); assay: Helios Cellular Degradation Assay (Ikaros readout); assay type: cell-based; design: endogenous in cells; host or cells: Jurkat; conditions: Jurkat cells, 72 h incubation, Ikaros-Alexa488 antibody staining, flow cytometry; read-out: Ikaros Jurkat IC50
In short: as §1

Chain of Helios (Q9UKS7 whole entry): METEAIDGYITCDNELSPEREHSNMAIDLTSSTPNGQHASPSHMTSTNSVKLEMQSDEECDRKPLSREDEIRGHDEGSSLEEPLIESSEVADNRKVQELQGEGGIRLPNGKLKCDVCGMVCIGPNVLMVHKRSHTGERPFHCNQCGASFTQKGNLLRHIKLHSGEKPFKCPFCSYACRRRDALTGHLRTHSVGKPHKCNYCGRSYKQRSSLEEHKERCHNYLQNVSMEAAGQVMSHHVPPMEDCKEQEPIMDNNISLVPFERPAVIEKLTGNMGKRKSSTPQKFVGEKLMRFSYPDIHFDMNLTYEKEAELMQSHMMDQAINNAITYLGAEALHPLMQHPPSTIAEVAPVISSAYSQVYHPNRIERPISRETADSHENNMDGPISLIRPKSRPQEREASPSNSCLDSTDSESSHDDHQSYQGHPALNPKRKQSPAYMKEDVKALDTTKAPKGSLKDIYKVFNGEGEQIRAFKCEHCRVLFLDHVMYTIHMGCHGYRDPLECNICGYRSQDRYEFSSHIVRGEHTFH
Chain of Helios (Q96SW2 whole entry): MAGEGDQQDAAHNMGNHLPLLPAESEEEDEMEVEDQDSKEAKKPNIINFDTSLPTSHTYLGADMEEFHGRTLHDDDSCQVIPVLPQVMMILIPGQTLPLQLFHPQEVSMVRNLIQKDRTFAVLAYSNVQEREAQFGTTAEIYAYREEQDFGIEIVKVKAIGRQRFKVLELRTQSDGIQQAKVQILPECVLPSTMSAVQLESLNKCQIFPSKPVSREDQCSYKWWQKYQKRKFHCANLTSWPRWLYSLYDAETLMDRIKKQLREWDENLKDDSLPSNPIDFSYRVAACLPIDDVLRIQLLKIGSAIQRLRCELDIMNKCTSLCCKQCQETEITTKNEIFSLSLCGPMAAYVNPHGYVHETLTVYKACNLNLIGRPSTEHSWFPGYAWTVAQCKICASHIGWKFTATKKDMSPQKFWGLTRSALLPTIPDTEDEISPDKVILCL
Chain of Helios (Q16531 whole entry partner): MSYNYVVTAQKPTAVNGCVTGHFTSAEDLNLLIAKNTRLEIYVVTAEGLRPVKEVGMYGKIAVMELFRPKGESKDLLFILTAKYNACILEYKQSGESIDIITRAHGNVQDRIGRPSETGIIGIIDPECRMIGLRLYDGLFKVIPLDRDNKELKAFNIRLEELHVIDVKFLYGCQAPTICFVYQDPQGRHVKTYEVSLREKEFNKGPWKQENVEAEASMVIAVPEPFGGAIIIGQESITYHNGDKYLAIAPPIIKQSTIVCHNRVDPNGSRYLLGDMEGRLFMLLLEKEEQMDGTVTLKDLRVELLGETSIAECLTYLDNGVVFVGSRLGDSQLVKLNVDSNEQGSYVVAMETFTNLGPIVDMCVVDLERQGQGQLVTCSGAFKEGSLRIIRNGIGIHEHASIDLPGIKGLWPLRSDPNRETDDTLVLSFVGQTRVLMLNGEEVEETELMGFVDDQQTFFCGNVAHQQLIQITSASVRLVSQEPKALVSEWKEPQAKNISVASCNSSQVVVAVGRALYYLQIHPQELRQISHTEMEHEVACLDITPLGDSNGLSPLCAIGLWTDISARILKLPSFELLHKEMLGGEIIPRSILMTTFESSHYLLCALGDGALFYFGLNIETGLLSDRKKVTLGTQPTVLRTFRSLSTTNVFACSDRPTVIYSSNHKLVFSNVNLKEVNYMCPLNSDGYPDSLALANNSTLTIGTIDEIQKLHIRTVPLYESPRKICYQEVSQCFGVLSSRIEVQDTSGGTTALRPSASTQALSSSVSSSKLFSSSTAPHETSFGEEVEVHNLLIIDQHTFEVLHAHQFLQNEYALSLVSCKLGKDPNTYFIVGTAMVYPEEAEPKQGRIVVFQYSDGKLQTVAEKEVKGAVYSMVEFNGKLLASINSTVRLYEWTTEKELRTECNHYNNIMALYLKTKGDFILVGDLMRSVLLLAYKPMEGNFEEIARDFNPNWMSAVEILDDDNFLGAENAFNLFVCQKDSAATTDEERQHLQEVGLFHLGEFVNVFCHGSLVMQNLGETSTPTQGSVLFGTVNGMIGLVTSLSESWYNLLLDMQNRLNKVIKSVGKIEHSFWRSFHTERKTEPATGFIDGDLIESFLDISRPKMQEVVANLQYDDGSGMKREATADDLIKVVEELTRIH
Chain of Ikaros (Q13422 whole entry): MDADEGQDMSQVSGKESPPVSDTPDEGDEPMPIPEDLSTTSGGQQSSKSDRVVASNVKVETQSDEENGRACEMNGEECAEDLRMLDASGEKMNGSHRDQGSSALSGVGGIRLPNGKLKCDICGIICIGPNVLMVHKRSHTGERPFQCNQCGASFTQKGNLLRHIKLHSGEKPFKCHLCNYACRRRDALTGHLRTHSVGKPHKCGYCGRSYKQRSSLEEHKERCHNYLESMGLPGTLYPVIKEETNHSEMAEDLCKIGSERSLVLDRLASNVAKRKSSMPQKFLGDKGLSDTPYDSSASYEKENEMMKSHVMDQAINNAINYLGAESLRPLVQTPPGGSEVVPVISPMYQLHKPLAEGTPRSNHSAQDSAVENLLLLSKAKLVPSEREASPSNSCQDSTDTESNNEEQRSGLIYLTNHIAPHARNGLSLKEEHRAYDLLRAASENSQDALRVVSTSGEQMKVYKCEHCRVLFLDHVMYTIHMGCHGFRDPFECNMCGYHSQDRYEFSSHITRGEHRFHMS
Chain of Ikaros (Q96SW2 whole entry): as the sequence (Q96SW2 whole entry) above
Chain of Ikaros (Q16531 whole entry partner): as the sequence (Q16531 whole entry partner) above

SMILES	DC50 [1]	DC50 [2]
O=C1CCC(N2Cc3cc(-c4nc5ccccc5nc4Cl)ccc3C2=O)C(=O)N1 (centres unmarked) [Example 93, 3-(5-(3-chloroquinoxalin-2-yl)-1-oxoisoindolin-2-yl)piperidine-2,6-dione]	17.1 µM	≥ 20 µM
COc1nc2ccccc2nc1-c1ccc2c(c1)CN(C1CCC(=O)NC1=O)C2=O (centres unmarked) [Example 94, 3-(5-(3-methoxyquinoxalin-2-yl)-1-oxoisoindolin-2-yl)piperidine-2,6-dione]	1.07 µM	≥ 20 µM
O=C1CCC(N2Cc3cc(-c4nc5ccccc5nc4O)ccc3C2=O)C(=O)N1 (centres unmarked) [Example 96, 3-(5-(3-hydroxyquinoxalin-2-yl)-1-oxoisoindolin-2-yl)piperidine-2,6-dione]	0.2 µM	≥ 20 µM
CC(C)c1nc2ccccc2nc1-c1ccc2c(c1)CN(C1CCC(=O)NC1=O)C2=O (centres unmarked) [Example 98, 3-(5-(3-isopropylquinoxalin-2-yl)-1-oxoisoindolin-2-yl)piperidine-2,6-dione]	0.86 µM	≥ 20 µM
O=C1CCC(N2Cc3cc(-c4nc5ccccc5nc4-c4ccccc4)ccc3C2=O)C(=O)N1 (centres unmarked) [Example 99, 3-(1-oxo-5-(3-phenylquinoxalin-2-yl)isoindolin-2-yl)piperidine-2,6-dione]	0.34 µM	≥ 20 µM
O=C1CCC(N2Cc3cc(-c4nccc5ncccc45)ccc3C2=O)C(=O)N1 (centres unmarked) [Example 100, 3-(5-(1,6-naphthyridin-5-yl)-1-oxoisoindolin-2-yl)piperidine-2,6-dione]	0.21 µM	≥ 20 µM
Nc1ccc(Br)c(-c2ccc3c(c2)CN(C2CCC(=O)NC2=O)C3=O)n1 (centres unmarked) [Example 101, 3-(5-(6-amino-3-bromopyridin-2-yl)-1-oxoisoindolin-2-yl)piperidine-2,6-dione]	0.47 µM	≥ 20 µM
O=C1CCC(N2Cc3cc(-c4ncccc4CO)ccc3C2=O)C(=O)N1 (centres unmarked) [Example 107, 3-(5-(3-(hydroxymethyl)pyridin-2-yl)-1-oxoisoindolin-2-yl)piperidine-2,6-dione]	1.13 µM	≥ 10 µM
O=C1CCC(N2Cc3cc(-c4cc(CO)ccn4)ccc3C2=O)C(=O)N1 (centres unmarked) [Example 108, 3-(5-(4-(hydroxymethyl)pyridin-2-yl)-1-oxoisoindolin-2-yl)piperidine-2,6-dione]	0.83 µM	≥ 10 µM
O=C1CCC(N2Cc3cc(-c4ccccn4)ccc3C2=O)C(=O)N1 (centres unmarked) [Example 109, 3-(1-oxo-5-(pyridin-2-yl)isoindolin-2-yl) piperidine-2,6-dione]	0.61 µM	≥ 10 µM
N#Cc1ccnc(-c2ccc3c(c2)CN(C2CCC(=O)NC2=O)C3=O)c1 (centres unmarked) [Example 110, 2-(2-(2,6-dioxopiperidin-3-yl)-1-oxoisoindolin-5-yl) isonicotinonitrile]	0.88 µM	≥ 10 µM
N#CCc1ccnc(-c2ccc3c(c2)CN(C2CCC(=O)NC2=O)C3=O)c1 (centres unmarked) [Example 111, 2-(2-(2-(2,6-dioxopiperidin-3-yl)-1-oxoisoindolin-5-yl)pyridin-4-yl)acetonitrile]	0.93 µM	≥ 10 µM
Nc1cc(CO)cc(-c2ccc3c(c2)CN(C2CCC(=O)NC2=O)C3=O)n1 (centres unmarked) [Example 112, 3-(5-(6-amino-4-(hydroxymethyl)pyridin-2-yl)-1-oxoisoindolin-2-yl)piperidine-2,6-dione]	0.42 µM	≥ 10 µM
O=C1CCC(N2Cc3cc(-c4ccc5c(n4)NC(=O)C5)ccc3C2=O)C(=O)N1 (centres unmarked) [Example 114, 3-(1-oxo-5-(2-oxo-2,3-dihydro-1H-pyrrolo[2,3-b]pyridin-6-yl)isoindolin-2-yl)piperidine-2,6-dione]	1.12 µM	≥ 10 µM
O=C1CCC(N2Cc3cc(-c4ccc5c(n4)NCCN5)ccc3C2=O)C(=O)N1 (centres unmarked) [Example 118, 3-(1-oxo-5-(1,2,3,4-tetrahydropyrido[2,3-b]pyrazin-6-yl)isoindolin-2-yl)piperidine-2,6-dione]	0.18 µM	≥ 10 µM
Cc1cc(-c2ccc3c(c2)CN(C2CCC(=O)NC2=O)C3=O)nc(C)c1N (centres unmarked) [Example 119, 3-(5-(5-amino-4,6-dimethylpyridin-2-yl)-1-oxoisoindolin-2-yl)piperidine-2,6-dione]	0.24 µM	≥ 10 µM

The next compounds have a lower DC50 [1] than those just listed; values first:

DC50 [1]	DC50 [2]	SMILES
0.17 µM	≥ 10 µM	Cc1ccc(-c2ccc3c(c2)CN(C2CCC(=O)NC2=O)C3=O)nc1N (centres unmarked) [Example 116, 3-(5-(6-amino-5-methylpyridin-2-yl)-1-oxoisoindolin-2-yl)piperidine-2,6-dione]
0.15 µM	≥ 10 µM	Nc1ccc(-c2ccc3c(c2)CN(C2CCC(=O)NC2=O)C3=O)nc1N (centres unmarked) [Example 117, 3-(5-(5,6-diaminopyridin-2-yl)-1-oxoisoindolin-2-yl)piperidine-2,6-dione]
0.14 µM	≥ 20 µM	O=C1CCC(N2Cc3cc(-c4ncc(OCc5ccccc5)c5ccccc45)ccc3C2=O)C(=O)N1 (centres unmarked) [Example 105, 3-(5-(4-(benzyloxy)isoquinolin-1-yl)-1-oxoisoindolin-2-yl)piperidine-2,6-dione]
0.13 µM	≥ 20 µM	COc1cccnc1-c1ccc2c(c1)CN(C1CCC(=O)NC1=O)C2=O (centres unmarked) [Example 104, 3-(5-(3-methoxypyridin-2-yl)-1-oxoisoindolin-2-yl)piperidine-2,6-dione]
0.11 µM	0.31 µM	CCNc1nc2ccccc2nc1-c1ccc2c(c1)CN(C1CCC(=O)NC1=O)C2=O (centres unmarked) [Example 95, 3-(5-(3-(ethylamino)quinoxalin-2-yl)-1-oxoisoindolin-2-yl)piperidine-2,6-dione]
0.1 µM	0.16 µM	O=C1CCC(N2Cc3cc(-c4cc5c(cn4)CCCC5)ccc3C2=O)C(=O)N1 (centres unmarked) [Example 115, 3-(1-oxo-5-(5,6,7,8-tetrahydroisoquinolin-3-yl)isoindolin-2-yl)piperidine-2,6-dione]
0.07 µM	≥ 10 µM	Nc1cc(C(F)(F)F)cc(-c2ccc3c(c2)CN(C2CCC(=O)NC2=O)C3=O)n1 (centres unmarked) [Example 120, 3-(5-(6-amino-4-(trifluoromethyl)pyridin-2-yl)-1-oxoisoindolin-2-yl)piperidine-2,6-dione]
0.05 µM	≥ 10 µM	O=C1CCC(N2Cc3cc(-c4cc5c(cn4)NCC5)ccc3C2=O)C(=O)N1 (centres unmarked) [Example 113, 3-(5-(2,3-dihydro-1H-pyrrolo[2,3-c]pyridin-5-yl)-1-oxoisoindolin-2-yl)piperidine-2,6-dione]
0.04 µM	1.28 µM	Cc1cnc(-c2ccc3c(c2)CN(C2CCC(=O)NC2=O)C3=O)cc1C (centres unmarked) [Example 121, 3-(5-(4,5-dimethylpyridin-2-yl)-1-oxoisoindolin-2-yl)piperidine-2,6-dione]
0.02 µM	≥ 20 µM	COc1ccc(N)nc1-c1ccc2c(c1)CN(C1CCC(=O)NC1=O)C2=O (centres unmarked) [Example 106, 3-(5-(6-amino-3-methoxypyridin-2-yl)-1-oxoisoindolin-2-yl)piperidine-2,6-dione]
0.01 µM	≥ 20 µM	COc1cnc(-c2ccc3c(c2)CN(C2CCC(=O)NC2=O)C3=O)c2ccccc12 (centres unmarked) [Example 103, 3-(5-(4-methoxyisoquinolin-1-yl)-1-oxoisoindolin-2-yl)piperidine-2,6-dione]
0.002 µM	≥ 20 µM	Nc1ccc2cnc(-c3ccc4c(c3)CN(C3CCC(=O)NC3=O)C4=O)cc2c1 (centres unmarked) [Example 102, 3-(5-(6-aminoisoquinolin-3-yl)-1-oxoisoindolin-2-yl)piperidine-2,6-dione]
